Read-outs that look alike come from different tables or passages of the source.
How the values were obtained:
[1] = system: HL-60 cells; settings: human, 4 h
Experimental: Promyelotic HL-60 cells (HL-18103, 5×10^5 cells/ml) were seeded on 96-well plates under NGF-free condition. […] 4 hours later, MTT was removed and 100 μl of DMSO was dropped into each well to dissolve crystals. UV absorbance was measured by microplate reader (BIO-RAD, U.S.A.) at 570 nm to calculate the cell viability.

[2] = system: IL-5; assay: IL-5 level in BALF of OVA-induced asthmatic mice (ELISA); assay type: in vivo; settings: 30 mg/ml; for IL-5: 48 hours after last challenge; for inhibition at 30000 µg/mL: Mus musculus, vs OVA-control
Experimental: (§1) Groups of mice (n=5-6) were studied; they received the following treatment: (1) sham-sensitization plus challenge with phosphate-buffered saline (PBS; ipNeb); (2) sensitization plus challenge with OVA (ovalbumin: Sigma A5503; Sigma, St. Louis, Mo.) (ipNeb); (3) sensitization with OVA (ip) plus challenge with OVA (Neb) and samples (tiarellic acid or zileuton, po). Briefly, mice were sensitized with intraperitoneal injection of 20 μg OVA, which was emulsified with 2 mg of aluminum hydroxide in 100 μl of PBS buffer (pH 7.4) on days 0 and 11. The mice were challenged through the airways with OVA (1% in PBS) for 20 min using an ultrasonic nubuilizer (NE-U12; Omron Corp., Tokyo, Japan) on days 19, 20, 21 and 25 after the initial sensitization. The mice were sacrificed 48 hours after the last challenge (day 27) to determine the suppressive effect of extract of T. polyphylla and tiarellic acid on the airways of allergic asthma.
(§2) 48 hours after the last challenge, the mice were sacrificed with an overdose of pentobarbital (Sigma P3761), and a tracheotomy was performed. After ice-cold PBS (0.5 ml) was instilled into the lungs, bronchoalveolar lavage fluid (BALF) was obtained by aspiration three times (total 1.5 ml) via tracheal cannulation. BALF was centrifuged and supernatants were collected and stored at −70° C. before use. The amount of IL-4, IL-5 and IL-13 in BALF was measured by a specific mouse ELISA kit (R&D Systems; Minneapolis, Minn.) according to the manufacturer's instructions. The detection limit of the assays was 250 pg/ml.
(§3) To determine the effect of extract of T. polyphylla and tiarellic acid on the cytokine release in the OVA-induced asthmatic mice, 48 hours after the last challenge, the levels of cytokines (IL-4, IL-5 and IL-13) in BALF were measured by using ELISA method.

[3] = system: LTC4 release; assay: LTC4 release from SCF-stimulated bone marrow-derived mast cells (BMMC), enzyme immunoassay; assay type: cell-based, Balb/c mice; settings: Mus musculus, SCF 100 ng/ml stimulation, read-out: LTC4 release inhibition (IC50)
Experimental: BMMC were obtained from male Balb/c mice and cultured for up to 4 weeks in 50% enriched medium (RPMI containing 2 mM L-glutamine, 25 mM HEPES buffer, 2 mg/ml sodium bicarbonate, 100 units/ml penicillin G, 100 μg/ml streptomycin sulfate, 0.25 μg/ml amphotericin B) supplemented with 10% fetal bovine serum with IL-3 (Sigma I4144, 2 ng/ml) (Murakami M et al., J. Bio. Chem., 39, pp 22653-22656, 1995). 3 weeks after the culture, more than 98% of BMMC was found in the cells as assessed by staining method with toluidine blue.
BMMC were suspended in the enriched medium at the cell density of 1×10^6 cells/ml, and were then incubated in a humidified 5% CO2 incubator with or without sample in DMSO (final DMSO concentration was less than 0.5%) for 30 min at 37° C. After the stimulation with stem cell factor (SCF, Sigma S9915, 100 ng/ml) for 20 min, the LTC4 release in supernatants was measured by an enzyme immunoassay kit (Cayman Chemical, Ann Arbor, Mich., U.S.A.) according to the manufacturer's instructions. All the experiments were carried out in triplicate and the inhibition of LTC4 release was determined by calculating % reduction of LTC4 release from the control (Lee S H et al., Biol. Pharm. Bull., 27, pp 786-788, 2004). […]

[4] = system: OVA-induced mice; assay: OVA-induced inflammation in lung tissue (H&E histology, inflammation score); assay type: in vivo
Experimental: Groups of mice (n=5-6) were studied; they received the following treatment: (1) sham-sensitization plus challenge with phosphate-buffered saline (PBS; ipNeb); (2) sensitization plus challenge with OVA (ovalbumin: Sigma A5503; Sigma, St. Louis, Mo.) (ipNeb); (3) sensitization with OVA (ip) plus challenge with OVA (Neb) and samples (tiarellic acid or zileuton, po). Briefly, mice were sensitized with intraperitoneal injection of 20 μg OVA, which was emulsified with 2 mg of aluminum hydroxide in 100 μl of PBS buffer (pH 7.4) on days 0 and 11. […]
The lung tissue was fixed for 24 hours on 10% neutral-buffered formalin. […] The degree of cell infiltration in the airway was scored in a double-blind test performed by two independent investigators (Myou S et al., J. Exp. Med., 198, pp 1573-1582, 2003). The peri-bronchiole and peri-vascular inflammation was evaluated by specific standard, i.e., scoring of 0-3, 0, no cells; 1, a few cells; 2, a ring of cells 1 to 5 cell-layer deep; 3, a thick ring of cells more than 5 cell-layer deep. To evaluate the suppressive effect of T. polyphylla extract and tiarellic acid on the leukocyte infiltration, the degree of inflammation was scored by quantitative analysis in lung tissues 48 hours after the last challenge (See FIG. 2).

[5] = system: OVA-specific IgE; assay: OVA-specific IgE in plasma of OVA-induced asthmatic mice (ELISA); assay type: in vivo; settings: Mus musculus, 48 hours after last challenge, 30 mg/ml, vs OVA-control
Experimental: as §1, with “The mice were sacrificed 48 hours after the last challenge (day 27) to determine the suppressive effect of extract of T. polyphylla and tiarellic acid on the airways of allergic asthma.” left out
48 hours after the last challenge, the mice were sacrificed with an overdose of pentobarbital (Sigma P3761), and a tracheotomy was performed. […] The amount of IL-4, IL-5 and IL-13 in BALF was measured by a specific mouse ELISA kit (R&D Systems; Minneapolis, Minn.) according to the manufacturer's instructions. […]
Plasma was obtained by cardiac puncture after the tracheotomy. […] IgE levels in each sample were measured the optical density readings at 450 nm, and OVA-specific IgE concentrations were calculated from a standard curve, which was generated in case recombinant IgE (5-2,000 ng/ml) was used.

[6] = system: IL-4; assay: IL-4 level in BALF of OVA-induced asthmatic mice (ELISA); assay type: in vivo; settings: 30 mg/ml; for IL-4: 48 hours after last challenge; for inhibition at 30000 µg/mL: Mus musculus, vs OVA-control
Experimental: as §1, §2, §3

[7] = system: ICR rat; assay: Carageenan-induced rat-paw edema; assay type: in vivo; settings: for The thickness ratio of ankle (%) / inhibition at 50 mg/kg: 50 mg/kg; for inhibition at 50 mg/kg: Rattus norvegicus, paw edema
Experimental: The inhibiting activity of the extract of T. polyphylla and […] prepared from the above Examples on the edema formation in ICR rat was determined as follows. The mice were divided into three groups consisting of 6 rats for each group, i.e., T1 treated with only solvent as a negative control group, T2 treated with 50 mg/kg of the extract of T. polyphylla, T3 treated with 50 mg/kg of aspirin respectively. 1 hour after the treatment, 1% […] solution was injected into inner rat ankle to induce edema and the thickness of ankle was measured by Vernier's caliper to determine the degree of the edema. The determined thickness was calculated by following Math Fig. 1. The thickness ratio of ankle(%)=[(maximum thickness of rat paw edema)-(the thickness of pre-treated rat paw edema)/(the thickness of pre-treated rat paw edema)]×100 MathFigure 1

[8] = system: IL-13; assay: IL-13 level in BALF of OVA-induced asthmatic mice (ELISA); assay type: in vivo; settings: 30 mg/ml; for IL-13: 48 hours after last challenge; for inhibition at 30000 µg/mL: Mus musculus, vs OVA-control
Experimental: as §1, §2, §3

[9] = system: OVA-induced asthmatic mice; assay: Airway hyperresponsiveness (AHR), whole-body plethysmography, OVA-induced asthmatic mice; assay type: in vivo; settings: for Penh value: tiarellic acid and zileuton 30 mg/ml, po; for Penh value / AHR compared with OVA-treated group: OVA-challenged mice, in words
Experimental: as §1, with “([…]” for “(tiarellic acid”, “tiarellic acid” left out, “asthma. 24 hours after the final aerosol challenge AHR was measured by using a whole-body plethysmography (OCP3000; Allmedicus, Korea)(Hamelmann E et al., Am J Respir Crit. Care Med., 156, pp 766-775, 1997). […] Bronchoconstriction was recorded for additional 5 mins at each concentration. The highest Penh value of each sample was obtained during each methacholine challenge, and expressed as a percentage of a basal Penh value in response to control (PBS) challenge.” for “asthma.”

Question: With `C=C(C)[C@@H]1CC[C@]2(C)CC[C@]3(C(=O)O)C(CCC4[C@@]5(C)CC[C@H](O)[C@@](C)(CO)C5CC[C@]43C)C12` (some centres unmarked) [Tiarellic acid, tiarellic acid] as the compound, how does the “Cell viability (%)” value ([1]; 50 μM) read?
Answer: The value was 100%.

Question: What about the “Cell viability (%)” value ([1]; 100 μM) of the same compound?
Answer: The value was 102%.

Question: What about the “IL-5” value [2] of the same compound?
Answer: The value was 81.9 ± 41.4 pg/mL.

Question: What about the inhibition at 30000 µg/mL [2] of the same compound?
Answer: The inhibition at 30000 µg/mL was 54.6 ± 23%.

Question: What about the IC50 [3] of the same compound?
Answer: Its IC50 is 2490 nM.

Question: And the “infiltration of eosinophil-rich leukocytes” value ([4]; H&E staining of lung tissues, compared with OVA-treated mice)?
Answer: Its value is “significantly attenuated”.

Question: What about the “suppressive effect on the inflammation in the lung tissues” value ([4]; OVA-induced mice, 48 hours after last challenge) of the same compound?
Answer: Its value is “most potent suppressive effect”.

Question: And the inhibition at 30000 µg/mL [5]?
Answer: Its inhibition at 30000 µg/mL is 48.8%.

Question: What about the “IL-4” value [6] of the same compound?
Answer: Its value is 33.8 ± 14.3 pg/mL.

Question: What about the inhibition at 30000 µg/mL [6] of the same compound?
Answer: Its inhibition at 30000 µg/mL is 90.5 ± 4%.

Question: And the “inhibition effect on rat paw edema” value ([7]; in words)?
Answer: Its value is “potent inhibition effect”.

Question: And the “IL-13” value [8]?
Answer: Its value is 81.7 ± 40.9 pg/mL.

Question: What about the inhibition at 30000 µg/mL [8] of the same compound?
Answer: The inhibition at 30000 µg/mL was 43.7 ± 28.2%.

Question: What about the Penh value ([9]; Metacholine 0 mg/ml) of the same compound?
Answer: The Penh value was 0.46 ± 0.08.

Question: What about the Penh value ([9]; Metacholine 5 mg/ml) of the same compound?
Answer: Its Penh value is 0.96 ± 0.45.

Question: And the Penh value ([9]; Metacholine 10 mg/ml)?
Answer: The Penh value was 1.54 ± 0.74.

Question: And the Penh value ([9]; Metacholine 20 mg/ml)?
Answer: The Penh value was 2.15 ± 0.52.

Question: And the “Penh value / AHR compared with OVA-treated group” value [9]?
Answer: The value was “significantly reduced”.

Question: `CC(=O)Oc1ccccc1C(=O)O` [aspirin] was tested. Which “The thickness ratio of ankle (%)” value ([7]; 1 hr) did it give?
Answer: The value was 139.3 ± 40.6%.

Question: And the “The thickness ratio of ankle (%)” value ([7]; 2 hr)?
Answer: The value was 170.4 ± 34.5%.

Question: What about the “The thickness ratio of ankle (%)” value ([7]; 3 hr) of the same compound?
Answer: The value was 180.6 ± 28.6%.

Question: And the “The thickness ratio of ankle (%)” value ([7]; 4 hr)?
Answer: The value was 196.9 ± 15.4%.

Question: And the “The thickness ratio of ankle (%)” value ([7]; 5 hr)?
Answer: Its value is 198.5 ± 12.6%.

Question: What about the inhibition at 50 mg/kg ([7]; 1 hr) of the same compound?
Answer: The inhibition at 50 mg/kg was -16.8 ± 34%.

Question: And the inhibition at 50 mg/kg ([7]; 2 hr)?
Answer: The inhibition at 50 mg/kg was -7.8 ± 21.8%.

Question: And the inhibition at 50 mg/kg ([7]; 3 hr)?
Answer: Its inhibition at 50 mg/kg is 7.3 ± 14.7%.

Question: What about the inhibition at 50 mg/kg ([7]; 4 hr) of the same compound?
Answer: The inhibition at 50 mg/kg was 4.3 ± 7.5%.

Question: What about the inhibition at 50 mg/kg ([7]; 5 hr) of the same compound?
Answer: The inhibition at 50 mg/kg was 1.5 ± 6.3%.

Question: `CC(c1cc2ccccc2s1)N(O)C(N)=O` (centres unmarked) [zileuton] was tested. Which “IL-5” value [2] did it give?
Answer: The value was 157.8 ± 41.3 pg/mL.

Question: And the inhibition at 30000 µg/mL [2]?
Answer: The inhibition at 30000 µg/mL was 12.5%.

Question: And the IC50 [3]?
Answer: The IC50 was 110 nM.

Question: What about the inhibition at 30000 µg/mL [5] of the same compound?
Answer: The inhibition at 30000 µg/mL was 45.8%.

Question: And the “IL-4” value [6]?
Answer: Its value is 289.5 ± 59.0 pg/mL.

Question: And the inhibition at 30000 µg/mL [6]?
Answer: The inhibition at 30000 µg/mL was 18.7%.

Question: And the “IL-13” value [8]?
Answer: Its value is 130.1 ± 16.8 pg/mL.

Question: What about the inhibition at 30000 µg/mL [8] of the same compound?
Answer: Its inhibition at 30000 µg/mL is 10.3%.

Question: What about the Penh value ([9]; Metacholine 0 mg/ml) of the same compound?
Answer: Its Penh value is 0.55 ± 0.14.

Question: What about the Penh value ([9]; Metacholine 5 mg/ml) of the same compound?
Answer: Its Penh value is 1.17 ± 0.59.

Question: And the Penh value ([9]; Metacholine 10 mg/ml)?
Answer: Its Penh value is 1.97 ± 0.83.

Question: And the Penh value ([9]; Metacholine 20 mg/ml)?
Answer: Its Penh value is 2.49 ± 0.90.

Question: And the “Penh value / AHR compared with OVA-treated group” value [9]?
Answer: The value was “showed a decrease of AHR but less than tiarellic acid”.

— US7763286B2, “Composition comprising an extract of Tiarella polyphylla and tiarellic acid isolated therefrom having antiinflammatory, antiallergic and antiasthmatic activity” (Korea Research Institute of Bioscience and Biotechnology, priority 2005, dated 2010)
